Columns and labels:
Type in all cases: cell-based
TRAAK/EK-1 M3-C = biological target: T1, TRAAK/EK-1 M3-C (Mus musculus, UniProt O88454+P97438, A173T/A231F/D223G/E202D/F190V/F242V/G166T/G224S/G226I/H162N/I179F/I208V/K200A/L167K/L171I/L175I/L177I/L182V/L186A/L235V/M195I/N228Y/N256D/P164S/P165Q/P221A/P230D/Q227E/Q233K/S170I/S193K/S197G/S229L/S249A/T187L/T189A/T225D/T252S/T253M/V168I/V174I/V191I/V209I/V214I/Y194H); assay: TEVC of chimera TRAAK/EK-1 M3-C; settings: Xenopus oocytes
T1 construct: Trp161 (TRAAK/EK-1 M3-C); expressed in transfected cells; host or cells: Xenopus laevis oocytes, mRNA injected; chimera built by Gibson assembly

K2P2.1(TREK-1) = biological target: T2, K2P2.1(TREK-1) (Mus musculus, UniProt P97438); assay: TEVC of K2P2.1(TREK-1) in Xenopus oocytes; set-up: expressed in transfected cells; host or cells: Xenopus laevis oocytes injected with mRNA made from pGEMHE/pMO
T2 sequence (P97438 1-411 isoform P97438-2): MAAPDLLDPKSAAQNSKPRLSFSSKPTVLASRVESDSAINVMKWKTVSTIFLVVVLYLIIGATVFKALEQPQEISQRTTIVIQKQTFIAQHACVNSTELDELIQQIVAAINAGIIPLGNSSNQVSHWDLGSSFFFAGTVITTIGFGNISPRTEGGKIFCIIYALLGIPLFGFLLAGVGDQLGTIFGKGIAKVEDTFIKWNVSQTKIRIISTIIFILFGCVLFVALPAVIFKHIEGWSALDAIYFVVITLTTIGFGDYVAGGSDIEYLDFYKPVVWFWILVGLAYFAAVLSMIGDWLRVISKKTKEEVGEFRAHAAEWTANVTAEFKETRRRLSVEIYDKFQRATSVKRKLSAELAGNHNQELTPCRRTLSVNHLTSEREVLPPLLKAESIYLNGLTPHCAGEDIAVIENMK
Description: Constructs for murine K2P channels, including K2P2.1(TREK-1) (Gene ID 16526), K2P10.1(TREK-2) (Gene ID 72258), K2P4.1(TRAAK) (Gene ID 16528), K2P5.1(TASK-2) (Gene ID 16529), K2P3.1(TASK-1) (Gene ID 16527), K2P9.1(TASK-3) (Gene ID 223604), and K2P18.1(TRESK) (Gene ID 332396) in pGEMHE/pMO, were used for Xenopus oocyte experiments as previously described.[10],[26] Murine K2P2.1(TREK-1) (Gene ID 16526) was expressed in HEK-293 cells using a pIRES-EGFP construct as previously described.[26] Murine K2P13.1(THIK-1) (Gene ID 217826) and K2P1.1(TWIK-1) (Gene ID 16525) were cloned into pGEMHE/pMO for use in Xenopus oocytes. Chimeras were designed using EMBOSS Needle pairwise sequence alignment tool[58] to match homologous helices in K2P2.1(TREK-1) and K2P4.1(TRAAK) and were assembled using the Gibson assembly method.[59] Chimera boundaries are Thr152 (TREK-1/AAK M2-C), Trp199 (TREK-1/AAK M3-C), Y272 (TREK-1/AAK M4-C), Thr114 (TRAAK/EK-1 M2-C), Trp161 (TRAAK/EK-1 M3-C), and Tyr234 K2P4.1(TRAAK). All sequences were verified using DNA sequencing.
Xenopus laevis oocytes were harvested in accordance with UCSF IACUC protocol AN129690 and digested in calcium-free ND-96 (96 mM NaCl, 2 mM KCl, 3.8 mM MgCl2) immediately following harvest, as previously described.[6],[10] Digested oocytes were maintained in standard ND96 (96 mM NaCl, 2 mM KCl, 1.8 mM CaCl2, 2 mM MgCl2) with antibiotics (100 units mL^–1 penicillin, 100 μg mL^–1 streptomycin, 50 μg mL^–1 gentimycin). Defolliculated stage V–VI oocytes were injected with 0.2–6.0 ng of mRNA in 50 nL, and currents were recorded 24–48 h after injection. mRNA was synthesized from plasmid DNA using mMessage mMachine Kit (T7 promoter, Ambion, Life Technologies) and purified using RNEasy Kit (Qiagen). Injected oocytes were impaled with two standard microelectrodes (0.2–1.0 MΩ) filled with 3 M KCl and subjected to constant perfusion of standard ND96 during recording. Currents were amplified using the GeneClamp 500B (MDS Analytical Technologies) amplifier controlled by the pClamp software (Molecular Devices). Data were digitized at 1 kHz using Digidata 1332A (MDS Analytical Technologies). For all experiments with small molecules, basal currents were evoked using 1 s long ramps from −150 to +50 mV under constant perfusion of ND96. Once stabilized basal currents were recorded, compounds were perfused at various concentrations in standard ND96 and currents were allowed to increase to stabilization before recording final current. Fold activation upon compound application is expressed as I/I0 (0 mV), derived from the current at 0 mV in the presence of compound divided by the basal current at 0 mV in standard ND96 without compound. Data were analyzed and plotted using Graphpad Prism Version 5 (GraphPad Software, San Diego California USA, www.graphpad.com). […] In the case of BL-1249-acid EC50 estimation, upper bound of I/I0 was set to 20 to account for the strong stimulation of BL-1249-acid.

TRAAK/EK-1 M4-C = biological target: T3, TRAAK/EK-1 M4-C (Mus musculus, UniProt O88454+P97438, F242V/L235V/N256D/S249A/T252S/T253M); assay: TEVC of chimera TRAAK/EK-1 M4-C; settings: Xenopus oocytes
T3 construct: and Tyr234 K2P4.1(TRAAK); expressed in transfected cells; host or cells: Xenopus laevis oocytes, mRNA injected; chimera built by Gibson assembly

TRAAK/EK-1 M2-C = biological target: T4, TRAAK/EK-1 M2-C (Mus musculus, UniProt O88454+P97438, A151S/D143N/F160Y/H141A/P165L/Q138H/R166H/S147A/S164V/V139S/V154I); assay: TEVC of chimera TRAAK/EK-1 M2-C; settings: Xenopus oocytes
T4 construct: Thr114 (TRAAK/EK-1 M2-C); expressed in transfected cells; host or cells: Xenopus laevis oocytes, mRNA injected; chimera built by Gibson assembly
T4 sequence (O88454+P97438 fused with the stated changes): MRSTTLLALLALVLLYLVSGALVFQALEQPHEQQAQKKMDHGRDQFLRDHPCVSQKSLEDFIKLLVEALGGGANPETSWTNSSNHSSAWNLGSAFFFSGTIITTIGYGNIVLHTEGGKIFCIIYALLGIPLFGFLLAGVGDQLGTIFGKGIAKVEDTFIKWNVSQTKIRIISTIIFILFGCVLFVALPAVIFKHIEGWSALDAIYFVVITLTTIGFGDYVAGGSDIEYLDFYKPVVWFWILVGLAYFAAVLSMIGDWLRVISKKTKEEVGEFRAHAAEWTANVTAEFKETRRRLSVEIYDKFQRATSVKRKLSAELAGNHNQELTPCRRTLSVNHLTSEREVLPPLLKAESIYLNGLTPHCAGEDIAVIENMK

T1 sequence (O88454+P97438 fused with the stated changes): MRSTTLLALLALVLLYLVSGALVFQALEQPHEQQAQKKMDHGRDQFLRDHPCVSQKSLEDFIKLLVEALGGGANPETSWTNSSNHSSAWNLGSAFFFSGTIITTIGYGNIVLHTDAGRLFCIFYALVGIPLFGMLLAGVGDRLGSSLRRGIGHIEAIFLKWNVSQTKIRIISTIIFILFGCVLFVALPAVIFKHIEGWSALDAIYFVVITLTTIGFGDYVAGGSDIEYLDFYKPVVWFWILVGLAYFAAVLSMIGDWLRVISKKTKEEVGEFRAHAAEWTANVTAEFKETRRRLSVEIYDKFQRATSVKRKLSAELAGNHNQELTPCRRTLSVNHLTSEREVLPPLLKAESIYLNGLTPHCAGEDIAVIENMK
T3 sequence (O88454+P97438 fused with the stated changes): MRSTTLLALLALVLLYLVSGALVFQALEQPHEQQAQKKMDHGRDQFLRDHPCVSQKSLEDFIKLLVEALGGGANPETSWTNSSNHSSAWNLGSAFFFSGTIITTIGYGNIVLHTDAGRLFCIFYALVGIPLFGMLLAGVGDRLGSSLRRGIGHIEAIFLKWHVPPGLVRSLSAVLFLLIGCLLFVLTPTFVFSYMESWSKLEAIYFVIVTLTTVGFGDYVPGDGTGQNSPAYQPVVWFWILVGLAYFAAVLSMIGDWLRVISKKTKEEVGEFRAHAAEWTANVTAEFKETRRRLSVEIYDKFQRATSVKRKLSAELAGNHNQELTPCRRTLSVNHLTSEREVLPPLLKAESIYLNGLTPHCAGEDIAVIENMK

Row | SMILES | EC50 (TRAAK/EK-1 M3-C) | effect on K2P2.1(TREK-1) current (in words) (K2P2.1(TREK-1); dose-response) | EC50 (TRAAK/EK-1 M4-C) | EC50 (TRAAK/EK-1 M2-C) | K2P2.1(TREK-1) current response (K2P2.1(TREK-1); extracellular application of 10 μM) | EC50 (K2P2.1(TREK-1); extracellular application, fold activation I/I0 at 0 mV)
1 | CS(=O)(=O)Nc1ccc(C(=O)NCc2ccc(Cl)cc2Cl)cc1 [ML335] | 13 ± 2 µM | robustly responded | > 100 µM | 8 ± 1 µM |  | 
2 | c1ccc(-c2nnn[nH]2)c(Nc2cccc3c2CCCC3)c1 [BL-1249, (5,6,7,8-tetrahydro-naphthalen-1-yl)-[2-(1H-tetrazol-5-yl)-phenyl]-amine] | 18 ± 2 µM |  | 45 ± 2 µM | 28 ± 5 µM | clear activation responses | 5.5 ± 1.2 µM
